Laboratory results reported in ChEMBL document CHEMBL5055633, “Amphipathic Barbiturates as Mimics of Antimicrobial Peptides and the Marine Natural Products Eusynstyelamides with Activity against Multi-resistant Clinical Isolates” (J Med Chem, 2021).

What was measured:
HepG2 = experiment: Cytotoxicity against human HepG2 cells assessed as reduction in cell viability incubated for 24 hrs by colorimetric tetrazolium assay; assay type: functional, cell-based; conditions: HepG2, 24 h
Enterococcus faecium [1] = experiment: Antimicrobial activity against extended spectrum-lactamase-carbapenemas producing Enterococcus faecium strain 50673722 assessed as reduction in bacterial growth incubated for 48 hrs by microdilution method; assay type: functional
Pseudomonas aeruginosa [2] = experiment: Antimicrobial activity against verona integron-encoded metallo-beta-lactamase producing Pseudomonas aeruginosa 50692520 assessed as reduction in bacterial growth incubated for 48 hrs by microdilution method; assay type: functional
Pseudomonas aeruginosa [3] = experiment: Antimicrobial activity against verona integron-encoded metallo-beta-lactamase-4 producing Pseudomonas aeruginosa K34-73 assessed as reduction in bacterial growth incubated for 48 hrs by microdilution method; assay type: functional
Staphylococcus aureus [4] = experiment: Antimicrobial activity against extended spectrum-lactamase-carbapenemas producing Staphylococcus aureus N315 assessed as reduction in bacterial growth incubated for 48 hrs by microdilution method; assay type: functional
Escherichia coli [5] = experiment: Antimicrobial activity against Escherichia coli ATCC 25922 assessed as reduction in bacterial growth incubated for 48 hrs by microdilution susceptibility test; assay type: functional
[6] = Antimicrobial activity against New Delhi metallo-beta lactamase-1 and oxacillinase -181 producing Klebsiella pneumoniae 50531633 assessed as reduction in bacterial growth incubated for 48 hrs by microdilution method; assay type: functional
Enterococcus faecium [7] = experiment: Antimicrobial activity against extended spectrum-lactamase-carbapenemas producing Enterococcus faecium strain 50758899 assessed as reduction in bacterial growth incubated for 48 hrs by microdilution method; assay type: functional
MRC5 = experiment: Cytotoxicity against human MRC5 cells assessed as reduction in cell viability incubated for 24 hrs by colorimetric tetrazolium assay; assay type: functional, cell-based; conditions: MRC5, 24 h
Escherichia coli [8] = experiment: Antimicrobial activity against oxacillinase-producing Escherichia coli 50579417 assessed as reduction in bacterial growth incubated for 48 hrs by microdilution method; assay type: functional
[9] = Antimicrobial activity against New Delhi metallo-beta lactamase-1 Klebsiella pneumoniae K66-45 assessed as reduction in bacterial growth incubated for 48 hrs by microdilution method; assay type: functional
[10] = Antimicrobial activity against verona integron-encoded metallo-beta-lactamase -1 producing Klebsiella pneumoniae 50667959 assessed as reduction in bacterial growth incubated for 48 hrs by microdilution method; assay type: functional
[11] = Antimicrobial activity against oxacillinase-245 producing Klebsiella pneumoniae 50625602 assessed as reduction in bacterial growth incubated for 48 hrs by microdilution method; assay type: functional
Escherichia coli [12] = experiment: Antimicrobial activity against imipenem-type carbapenemase-26 producing Escherichia coli 50857972 assessed as reduction in bacterial growth incubated for 48 hrs by microdilution method; assay type: functional
Staphylococcus aureus [13] = experiment: Antimicrobial activity against Staphylococcus aureus ATCC 9144 assessed as reduction in bacterial growth incubated for 48 hrs by microdilution susceptibility test; assay type: functional
Enterococcus faecium [14] = experiment: Antimicrobial activity against extended spectrum-lactamase-carbapenemas producing Enterococcus faecium strain TUH.50-22 assessed as reduction in bacterial growth incubated for 48 hrs by microdilution method; assay type: functional
Escherichia coli [15] = experiment: Antimicrobial activity against New Delhi metallo-beta lactamase-1 producing Escherichia coli 50676002 assessed as reduction in bacterial growth incubated for 48 hrs by microdilution method; assay type: functional
Acinetobacter baumannii [16] = experiment: Antimicrobial activity against oxacillinase-58 producing Acinetobacter baumannii K12-21 assessed as reduction in bacterial growth incubated for 48 hrs by microdilution method; assay type: functional
Pseudomonas aeruginosa [17] = experiment: Antimicrobial activity against New Delhi metallo-beta lactamase-1 producing Pseudomonas aeruginosa 50692172 assessed as reduction in bacterial growth incubated for 48 hrs by microdilution method; assay type: functional
Pseudomonas aeruginosa [18] = experiment: Antimicrobial activity against verona integron-encoded metallo-beta-lactamase-2 producing Pseudomonas aeruginosa K34-7 assessed as reduction in bacterial growth incubated for 48 hrs by microdilution method; assay type: functional
Acinetobacter baumannii [19] = experiment: Antimicrobial activity against oxacillinase-24 producing Acinetobacter baumannii K55-13 assessed as reduction in bacterial growth incubated for 48 hrs by microdilution method; assay type: functional
Staphylococcus aureus [20] = experiment: Antimicrobial activity against extended spectrum-lactamase-carbapenemas producing Staphylococcus aureus strain 85/2082 assessed as reduction in bacterial growth incubated for 48 hrs by microdilution method; assay type: functional
Escherichia coli [21] = experiment: Antimicrobial activity against New Delhi metallo-beta lactamase-1 producing Escherichia coli 50739822 assessed as reduction in bacterial growth incubated for 48 hrs by microdilution method; assay type: functional
Acinetobacter baumannii [22] = experiment: Antimicrobial activity against oxacillinase-23 producing Acinetobacter baumannii K63-58 assessed as reduction in bacterial growth incubated for 48 hrs by microdilution method; assay type: functional
Pseudomonas aeruginosa [23] = experiment: Antimicrobial activity against Pseudomonas aeruginosa PAO1 assessed as reduction in bacterial growth incubated for 48 hrs by microdilution susceptibility test; assay type: functional
Staphylococcus aureus [24] = experiment: Antimicrobial activity against extended spectrum-lactamase-carbapenemas producing Staphylococcus aureus strain IHT 99040 assessed as reduction in bacterial growth incubated for 48 hrs by microdilution method; assay type: functional
Enterococcus faecium [25] = experiment: Antimicrobial activity against extended spectrum-lactamase-carbapenemas producing Enterococcus faecium strain 50901530 assessed as reduction in bacterial growth incubated for 48 hrs by microdilution method; assay type: functional
[26] = Hemolytic activity in human erythrocytes incubated for 1 hr by microplate reader; assay type: functional, cell-based; conditions: erythrocyte
Escherichia coli [27] = experiment: Antimicrobial activity against verona integron-encoded metallo-beta-lactamase-29-producing Escherichia coli 50639799 assessed as reduction in bacterial growth incubated for 48 hrs by microdilution method; assay type: functional
Acinetobacter baumannii [28] = experiment: Antimicrobial activity against oxacillinase-23 producing Acinetobacter baumannii K44-35 assessed as reduction in bacterial growth incubated for 48 hrs by microdilution method; assay type: functional
Acinetobacter baumannii [29] = experiment: Antimicrobial activity against oxacillinase-23 producing Acinetobacter baumannii K47-42 assessed as reduction in bacterial growth incubated for 48 hrs by microdilution method; assay type: functional
Staphylococcus aureus [30] = experiment: Antimicrobial activity against extended spectrum-lactamase-carbapenemas producing Staphylococcus aureus strain WIS assessed as reduction in bacterial growth incubated for 48 hrs by microdilution method; assay type: functional
[31] = tested on: Corynebacterium glutamicum; experiment: Antimicrobial activity against Corynebacterium glutamicum ATCC 13032 assessed as reduction in bacterial growth incubated for 48 hrs by microdilution susceptibility test; assay type: functional
Enterococcus faecium [32] = experiment: Antimicrobial activity against extended spectrum-lactamase-carbapenemas producing Enterococcus faecium strain K36-18 assessed as reduction in bacterial growth incubated for 48 hrs by microdilution method; assay type: functional
[33] = Antimicrobial activity against carbapenemase producing Klebsiella pneumoniae K47-25 assessed as reduction in bacterial growth incubated for 48 hrs by microdilution method; assay type: functional
Staphylococcus aureus [34] = experiment: Antimicrobial activity against extended spectrum-lactamase-carbapenemas producing Staphylococcus aureus NCTC 10442 assessed as reduction in bacterial growth incubated for 48 hrs by microdilution method; assay type: functional
Pseudomonas aeruginosa [35] = experiment: Antimicrobial activity against imipenem-type carbapenemase-14 producing Pseudomonas aeruginosa K44-24 assessed as reduction in bacterial growth incubated for 48 hrs by microdilution method; assay type: functional

Compound | IC50 (HepG2) [µg/mL] | MIC (Enterococcus faecium [1]) [µg/mL] | MIC (Pseudomonas aeruginosa [2]) [µg/mL] | MIC (Pseudomonas aeruginosa [3]) [µg/mL] | MIC (Staphylococcus aureus [4]) [µg/mL] | MIC (Escherichia coli [5]) [µg/mL] | MIC [6] [µg/mL] | MIC (Enterococcus faecium [7]) [µg/mL] | IC50 (MRC5) [µg/mL] | MIC (Escherichia coli [8]) [µg/mL] | MIC [9] [µg/mL] | MIC [10] [µg/mL] | MIC [11] [µg/mL] | MIC (Escherichia coli [12]) [µg/mL] | MIC (Staphylococcus aureus [13]) [µg/mL] | MIC (Enterococcus faecium [14]) [µg/mL] | MIC (Escherichia coli [15]) [µg/mL] | MIC (Acinetobacter baumannii [16]) [µg/mL] | MIC (Pseudomonas aeruginosa [17]) [µg/mL] | MIC (Pseudomonas aeruginosa [18]) [µg/mL] | further results
NCCCCN1C(=O)N(CCCCN)C(=O)C(Cc2ccc(Br)c(Cl)c2)(Cc2ccc(Br)c(Cl)c2)C1=O.O=C(O)C(F)(F)F.O=C(O)C(F)(F)F | 6 | 16 | 32 | 32 | 8 | 16 | 16 | 16 | 10 | 16 | 32 | 32 | 32 | 16 | 4 | 4 | 16 | 32 | 32 | 32 | MIC (Acinetobacter baumannii [19]): 32 µg/mL; MIC (Staphylococcus aureus [20]): 4 µg/mL; MIC (Escherichia coli [21]): 16 µg/mL; MIC (Acinetobacter baumannii [22]): 32 µg/mL; MIC (Pseudomonas aeruginosa [23]): 32 µg/mL; MIC (Staphylococcus aureus [24]): 4 µg/mL; MIC (Enterococcus faecium [25]): 8 µg/mL; EC50 [26]: 172 µg/mL; MIC (Escherichia coli [27]): 16 µg/mL; MIC (Acinetobacter baumannii [28]): 32 µg/mL; MIC (Acinetobacter baumannii [29]): 32 µg/mL; MIC (Staphylococcus aureus [30]): 8 µg/mL; MIC [31]: 1 µg/mL; MIC (Enterococcus faecium [32]): 16 µg/mL; MIC [33]: 32 µg/mL; MIC (Staphylococcus aureus [34]): 8 µg/mL; MIC (Pseudomonas aeruginosa [35]): 32 µg/mL
N=C(N)NCCCCN1C(=O)N(CCCCNC(=N)N)C(=O)C(Cc2ccc(C(F)(F)F)cc2)(Cc2ccc(C(F)(F)F)cc2)C1=O.O=C(O)C(F)(F)F.O=C(O)C(F)(F)F | 104 | 32 | > 32 | > 32 | 4 | 8 | > 32 | > 32 | 74 | 32 | > 32 | > 32 | > 32 | 16 | 2 | 32 | 32 | > 32 | > 32 | > 32 | MIC (Acinetobacter baumannii [19]): > 32 µg/mL; MIC (Staphylococcus aureus [20]): 4 µg/mL; MIC (Escherichia coli [21]): 32 µg/mL; MIC (Acinetobacter baumannii [22]): > 32 µg/mL; MIC (Pseudomonas aeruginosa [23]): 64 µg/mL; MIC (Staphylococcus aureus [24]): 8 µg/mL; MIC (Enterococcus faecium [25]): 8 µg/mL; EC50 [26]: > 449 µg/mL; MIC (Escherichia coli [27]): 16 µg/mL; MIC (Acinetobacter baumannii [28]): > 32 µg/mL; MIC (Acinetobacter baumannii [29]): > 32 µg/mL; MIC (Staphylococcus aureus [30]): 4 µg/mL; MIC [31]: 0.25 µg/mL; MIC (Enterococcus faecium [32]): 32 µg/mL; MIC [33]: > 32 µg/mL; MIC (Staphylococcus aureus [34]): 4 µg/mL; MIC (Pseudomonas aeruginosa [35]): > 32 µg/mL
CC(C)(C)c1ccc(CC2(Cc3ccc(C(C)(C)C)cc3)C(=O)N(CCCCN)C(=O)N(CCCCN)C2=O)cc1.O=C(O)C(F)(F)F.O=C(O)C(F)(F)F | 3 | 8 | > 32 | > 32 | 8 | 4 | 16 | 8 | 1 | 8 | 32 | 32 | 16 | 4 | 4 | 8 | 4 | 16 | > 32 | > 32 | MIC (Acinetobacter baumannii [19]): 16 µg/mL; MIC (Staphylococcus aureus [20]): 8 µg/mL; MIC (Escherichia coli [21]): 8 µg/mL; MIC (Acinetobacter baumannii [22]): 16 µg/mL; MIC (Pseudomonas aeruginosa [23]): 8 µg/mL; MIC (Staphylococcus aureus [24]): 8 µg/mL; MIC (Enterococcus faecium [25]): 4 µg/mL; EC50 [26]: 145 µg/mL; MIC (Escherichia coli [27]): 8 µg/mL; MIC (Acinetobacter baumannii [28]): 32 µg/mL; MIC (Acinetobacter baumannii [29]): 16 µg/mL; MIC (Staphylococcus aureus [30]): 8 µg/mL; MIC [31]: 1 µg/mL; MIC (Enterococcus faecium [32]): 8 µg/mL; MIC [33]: > 32 µg/mL; MIC (Staphylococcus aureus [34]): 8 µg/mL; MIC (Pseudomonas aeruginosa [35]): > 32 µg/mL
